Experiment: refractive index (Na D-line) (dimensionless); xn = mol fraction of the nth substance listed
Details: 101 kPa, Liquid, Standard Abbe refractometry

Cc1cc(C)cc(C)c1 [1,3,5-trimethylbenzene] + CCCCOC(C)=O
refractive index
Details | 293.15 K | 298.15 K | 303.15 K | 308.15 K | 313.15 K
x2 = 0.0516 | 1.49409 | 1.4916 | 1.48907 | 1.48654 | 1.48399
x2 = 0.1002 | 1.48903 | 1.4866 | 1.48406 | 1.4816 | 1.47894
x2 = 0.1506 | 1.48392 | 1.48139 | 1.47885 | 1.47632 | 1.47373
x2 = 0.2009 | 1.4787 | 1.47618 | 1.47366 | 1.47112 | 1.4686
x2 = 0.2516 | 1.47339 | 1.4709 | 1.46844 | 1.46589 | 1.46337
x2 = 0.2995 | 1.4684 | 1.46588 | 1.46345 | 1.46088 | 1.45835
x2 = 0.3481 | 1.46333 | 1.46081 | 1.45838 | 1.4558 | 1.45332
x2 = 0.3998 | 1.4579 | 1.45539 | 1.45292 | 1.45039 | 1.44787
x2 = 0.4499 | 1.45266 | 1.45014 | 1.44772 | 1.44513 | 1.44264
x2 = 0.5012 | 1.44725 | 1.44474 | 1.44227 | 1.43973 | 1.43728
x2 = 0.5517 | 1.44194 | 1.43941 | 1.43693 | 1.43441 | 1.43194
x2 = 0.599 | 1.43693 | 1.4344 | 1.43191 | 1.42937 | 1.42693
x2 = 0.6518 | 1.43134 | 1.42882 | 1.42637 | 1.42379 | 1.42135
x2 = 0.702 | 1.42599 | 1.42348 | 1.42096 | 1.41847 | 1.41604
x2 = 0.7495 | 1.42089 | 1.41842 | 1.41595 | 1.41342 | 1.41096
x2 = 0.8007 | 1.41541 | 1.41296 | 1.4105 | 1.40803 | 1.40553
x2 = 0.8531 | 1.40984 | 1.40738 | 1.40488 | 1.40245 | 1.39998
x2 = 0.8998 | 1.40482 | 1.4024 | 1.39997 | 1.39751 | 1.39502
x2 = 0.9494 | 1.39954 | 1.3971 | 1.39467 | 1.39225 | 1.38972

CC(C)(C)c1ccccc1 [(1,1-dimethylethyl)benzene] + CCCCOC(C)=O
refractive index
Details | 293.15 K | 298.15 K | 303.15 K | 308.15 K | 313.15 K
x2 = 0.0517 | 1.48818 | 1.48564 | 1.48328 | 1.48061 | 1.47812
x2 = 0.1 | 1.48411 | 1.48154 | 1.47905 | 1.47649 | 1.47384
x2 = 0.1522 | 1.4795 | 1.47702 | 1.47452 | 1.47204 | 1.46953
x2 = 0.1995 | 1.47531 | 1.47273 | 1.47031 | 1.4677 | 1.46521
x2 = 0.2511 | 1.47077 | 1.46811 | 1.4657 | 1.46309 | 1.46062
x2 = 0.3008 | 1.46621 | 1.4636 | 1.4612 | 1.45859 | 1.45614
x2 = 0.3516 | 1.46145 | 1.45891 | 1.45652 | 1.45387 | 1.45137
x2 = 0.4061 | 1.45636 | 1.45381 | 1.45141 | 1.4488 | 1.44635
x2 = 0.4489 | 1.45221 | 1.44966 | 1.44727 | 1.4447 | 1.44226
x2 = 0.4994 | 1.44728 | 1.44477 | 1.44234 | 1.43978 | 1.43736
x2 = 0.5499 | 1.44227 | 1.43976 | 1.43736 | 1.43476 | 1.43237
x2 = 0.607 | 1.43649 | 1.434 | 1.43155 | 1.42904 | 1.42656
x2 = 0.6496 | 1.43209 | 1.42958 | 1.42717 | 1.42461 | 1.42212
x2 = 0.7006 | 1.42687 | 1.42436 | 1.42195 | 1.41938 | 1.41686
x2 = 0.7489 | 1.42175 | 1.41927 | 1.41683 | 1.41427 | 1.41174
x2 = 0.8013 | 1.41615 | 1.41367 | 1.41122 | 1.40871 | 1.40625
x2 = 0.8509 | 1.41079 | 1.40829 | 1.40593 | 1.40331 | 1.4009
x2 = 0.9005 | 1.40535 | 1.40288 | 1.40048 | 1.39799 | 1.39547
x2 = 0.95 | 1.39982 | 1.39742 | 1.3949 | 1.39263 | 1.39007

CC(C)Cc1ccccc1 [(2-methylpropyl)benzene] + CCCCOC(C)=O
refractive index
Details | 293.15 K | 298.15 K | 303.15 K | 308.15 K | 313.15 K
x2 = 0.056 | 1.48206 | 1.47965 | 1.47708 | 1.47442 | 1.47211
x2 = 0.1042 | 1.47812 | 1.47565 | 1.4731 | 1.47066 | 1.46813
x2 = 0.1619 | 1.47345 | 1.47097 | 1.4685 | 1.46595 | 1.4635
x2 = 0.201 | 1.47035 | 1.46781 | 1.46524 | 1.46268 | 1.46015
x2 = 0.2486 | 1.46644 | 1.46384 | 1.46128 | 1.45868 | 1.45618
x2 = 0.3027 | 1.4618 | 1.45922 | 1.45658 | 1.45405 | 1.45156
x2 = 0.3619 | 1.45664 | 1.45401 | 1.45147 | 1.44897 | 1.44641
x2 = 0.3994 | 1.4533 | 1.45072 | 1.44816 | 1.44564 | 1.4431
x2 = 0.4537 | 1.44838 | 1.44587 | 1.44328 | 1.44077 | 1.43826
x2 = 0.5056 | 1.44366 | 1.4411 | 1.43853 | 1.43602 | 1.43356
x2 = 0.5506 | 1.43942 | 1.43693 | 1.43443 | 1.43187 | 1.4294
x2 = 0.5973 | 1.43506 | 1.43254 | 1.43002 | 1.4275 | 1.42498
x2 = 0.6485 | 1.43012 | 1.42758 | 1.42505 | 1.42256 | 1.42003
x2 = 0.6954 | 1.42551 | 1.423 | 1.42052 | 1.41799 | 1.41549
x2 = 0.751 | 1.41999 | 1.41754 | 1.41506 | 1.41255 | 1.41004
x2 = 0.7981 | 1.41525 | 1.41278 | 1.4103 | 1.40782 | 1.40532
x2 = 0.8469 | 1.41021 | 1.40779 | 1.40535 | 1.4029 | 1.40036
x2 = 0.8995 | 1.40482 | 1.40235 | 1.39997 | 1.39757 | 1.39493
x2 = 0.9482 | 1.39966 | 1.3973 | 1.39479 | 1.39237 | 1.38994

CCCCOC(C)=O [butyl ethanoate] + CCc1ccccc1
refractive index
Details | 293.15 K | 298.15 K | 303.15 K | 308.15 K | 313.15 K
x1 = 0.0544 | 1.48984 | 1.48716 | 1.48442 | 1.48172 | 1.47899
x1 = 0.1008 | 1.48485 | 1.48219 | 1.47946 | 1.47673 | 1.47401
x1 = 0.1488 | 1.4796 | 1.47693 | 1.47418 | 1.47152 | 1.46884
x1 = 0.2024 | 1.47382 | 1.47116 | 1.46843 | 1.4658 | 1.4631
x1 = 0.254 | 1.46832 | 1.46568 | 1.46302 | 1.46037 | 1.45768
x1 = 0.2929 | 1.46417 | 1.46155 | 1.4589 | 1.45623 | 1.45354
x1 = 0.3526 | 1.45799 | 1.45536 | 1.45263 | 1.45 | 1.44729
x1 = 0.3989 | 1.45314 | 1.45054 | 1.44782 | 1.44526 | 1.44253
x1 = 0.4448 | 1.44842 | 1.44582 | 1.44315 | 1.44053 | 1.43785
x1 = 0.5021 | 1.44254 | 1.43999 | 1.43733 | 1.43472 | 1.43207
x1 = 0.5505 | 1.43764 | 1.43508 | 1.43242 | 1.42983 | 1.4272
x1 = 0.6041 | 1.43221 | 1.42967 | 1.42703 | 1.42449 | 1.42191
x1 = 0.6456 | 1.42806 | 1.42552 | 1.42292 | 1.42036 | 1.41779
x1 = 0.7003 | 1.42266 | 1.42015 | 1.41759 | 1.41507 | 1.41252
x1 = 0.7555 | 1.41729 | 1.41481 | 1.41224 | 1.40974 | 1.4072
x1 = 0.8016 | 1.41282 | 1.41035 | 1.40784 | 1.40537 | 1.40283
x1 = 0.8511 | 1.40813 | 1.40566 | 1.4032 | 1.40068 | 1.39815
x1 = 0.9009 | 1.40339 | 1.40097 | 1.39849 | 1.39597 | 1.39349
x1 = 0.9505 | 1.39875 | 1.39633 | 1.39386 | 1.39139 | 1.38895

— the NIST ThermoML archive (doi:10.1007/s10765-005-8096-3)
